Data published in article PMC3111191, “Molecular Evolution of Multiple Arylalkylamine N-Acetyltransferase (AANAT) in Fish” (Marine Drugs, 2011).

Key:
[1] = molecular target: T1, AANAT1a (Sparus aurata, UniProt Q68SL7); assay: radiochemical assay, inhibition of tryptamine acetylation; format: biochemical; conditions: read-out: % inhibition at 5 mM
T1 construct: gene AANAT1

[2] = molecular target: AANAT2 (Sparus aurata, UniProt Q68SL6); assay: as above; format: biochemical; conditions: read-out: % inhibition at 50 mM
Chain of AANAT2 (Q68SL6 1-205): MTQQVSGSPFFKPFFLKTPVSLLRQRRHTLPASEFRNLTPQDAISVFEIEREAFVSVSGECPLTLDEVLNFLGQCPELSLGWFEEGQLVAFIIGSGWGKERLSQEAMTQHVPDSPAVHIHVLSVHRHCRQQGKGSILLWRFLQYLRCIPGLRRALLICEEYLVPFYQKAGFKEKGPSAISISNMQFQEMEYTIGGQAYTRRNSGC

T1 sequence (Q68SL7 1-202): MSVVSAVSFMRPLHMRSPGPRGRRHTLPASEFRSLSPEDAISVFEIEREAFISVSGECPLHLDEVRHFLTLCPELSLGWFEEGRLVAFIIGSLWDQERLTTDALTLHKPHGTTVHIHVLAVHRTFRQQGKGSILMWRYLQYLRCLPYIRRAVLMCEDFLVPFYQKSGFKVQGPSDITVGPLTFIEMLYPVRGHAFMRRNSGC

Which inhibition at 5000 µM [1] does the source give for `NCCc1ccc(O)c(O)c1` [dopamine] here?
The inhibition at 5000 µM was roughly 60%.

What about the inhibition at 50000 µM [2] of the same compound?
The inhibition at 50000 µM was roughly 60%.
